Experimental data published in patent US4753953A, “Pyridonecarboxylic acid derivatives and antibacterial pharmaceutical compositions thereof” (priority 1985, dated 1988).
Values after ≈ are worked out from the molar mass of the structure shown. Like-named read-outs stand apart in the source and are kept apart here.

What was measured:
[1] = test system: Enterobacter cloacae IID 977; assay: MIC, in vitro antibacterial activity (standard strains); type: cell-based; details: Enterobacter cloacae, IID977; 10^6 cells/ml; Gram -; read-out: MIC
Shigella sonnei IID 969 = assay: as above; type: cell-based; details: Shigella sonnei, IID969; 10^6 cells/ml; Gram -; read-out: MIC
Description: Minimal inhibitory concentrations (MICs) were determined in accordance with the method recommended by Japan Society of Chemotherapy.

[2] = test system: Staphylococcus aureus 209 P; assay: as above; type: cell-based; details: Staphylococcus aureus, 209P; 10^6 cells/ml; Gram +; read-out: MIC
[3] = test system: Klebsiella pneumoniae KY(GN)6445; assay: as above; type: cell-based; details: Klebsiella pneumoniae
[4] = test system: Escherichia coli NIHJ JC-2; assay: as above; type: cell-based; details: Escherichia coli, NIHJJC2
[5] = test system: Yersinia enterocolitica IID 981; assay: as above; type: cell-based; details: Yersinia enterocolitica, IID981
F. necrophorum S-45 = assay: as above; type: cell-based; details: Fusobacterium necrophorum, S45; 10^6 cells/ml; Gram -; read-out: MIC
[6] = test system: Proteus vulgaris IFO 3167; assay: as above; type: cell-based; details: Proteus vulgaris, IFO3167
B. fragilis 0558 = assay: as above; type: cell-based, Bacteroides fragilis; details: Bacteroides fragilis, 0558; 10^6 cells/ml; Gram -; read-out: MIC
S. pyogenes IID 692 = assay: as above; type: cell-based, Streptococcus pyogenes; details: Streptococcus pyogenes, IID692; 10^6 cells/ml; Gram +; read-out: MIC
C. ramosum = assay: as above; type: cell-based; details: Thomasclavelia ramosa; 10^6 cells/ml; Gram +; read-out: MIC
[7] = test system: Acinetobacter anitratus IID 876; assay: as above; type: cell-based; details: Acinetobacter calcoaceticus, IID876; 10^6 cells/ml; Gram -; read-out: MIC
P. maltophilia GIFU 2491 = assay: as above; type: cell-based; details: Stenotrophomonas maltophilia, GIFU2491
S. aureus Smith = assay: as above; type: cell-based, Staphylococcus aureus; details: Staphylococcus aureus; 10^6 cells/ml; Gram +; read-out: MIC
[8] = test system: Bacteroides fragilis GM 7000; assay: as above; type: cell-based; details: Bacteroides fragilis, GM7000; 10^6 cells/ml; Gram -; read-out: MIC
[9] = test system: Streptococcus pyogenes (S-8); assay: as above; type: cell-based; details: Streptococcus pyogenes; 10^6 cells/ml; Gram +; read-out: MIC
Pst. micros UPI 5464-1 = assay: as above; type: cell-based; details: Parvimonas micra, UPI54641; 10^6 cells/ml; Gram +; read-out: MIC
[10] = test system: Clostridium difficile I-E; assay: as above; type: cell-based; details: Clostridioides difficile; 10^6 cells/ml; Gram +
K. pneumoniae 1-220S = assay: as above; type: cell-based, Klebsiella pneumoniae; details: Klebsiella pneumoniae, 1220S; 10^6 cells/ml; Gram -; read-out: MIC
S. pneumoniae IID 552 = assay: as above; type: cell-based; details: Streptococcus pneumoniae, IID552; 10^6 cells/ml; Gram +; read-out: MIC
B. fragilis 25285 = assay: as above; type: cell-based, Bacteroides fragilis; details: Bacteroides fragilis, 25285; 10^6 cells/ml; Gram -; read-out: MIC
[11] = test system: Propionibacterium acens 11828; assay: as above; type: cell-based; details: Propionibacterium, 11828; 10^6 cells/ml; Gram +; read-out: MIC
[12] = test system: Pseudomonas aeruginosa V-1; assay: as above; type: cell-based; details: Pseudomonas aeruginosa, V1; 10^6 cells/ml; Gram -; read-out: MIC
[13] = test system: Peptococcus magnus KY 017; assay: as above; type: cell-based; details: Finegoldia magna, KY017; 10^6 cells/ml; Gram +; read-out: MIC
C. perfringens KYA 13123 = assay: microbe, parasite or virus in culture; type: cell-based; details: Clostridium perfringens, KYA13123
[14] = test system: Veillonella parvula KYA 10790; assay: MIC, in vitro antibacterial activity (standard strains); type: cell-based; details: Veillonella parvula, KYA10790; 10^6 cells/ml; Gram -; read-out: MIC
E. coli ML 4707 = assay: as above; type: cell-based, Escherichia coli; details: Escherichia coli, ML4707, 10^6 cells/ml; Gram -; Table 1; read-out: MIC
F. varium KYA 8501 = assay: as above; type: cell-based; details: Fusobacterium varium, KYA8501; 10^6 cells/ml; Gram -; read-out: MIC
[15] = test system: Alcaligenes faecalis 0114002; assay: as above; type: cell-based; details: Alcaligenes faecalis, 0114002; 10^6 cells/ml; Gram -; read-out: MIC
P. mirabilis IID 994 = assay: as above; type: cell-based; details: Proteus mirabilis, IID994; 10^6 cells/ml; Gram -; read-out: MIC
S. epidermidis IID 866 = assay: as above; type: cell-based; details: Staphylococcus epidermidis, IID866; 10^6 cells/ml; Gram +; read-out: MIC
[16] = 10^6 cells/ml, Gram -, read-out: MIC

SMILES	MIC [1]	MIC (Shigella sonnei IID 969)	MIC [2]	MIC (F. necrophorum S-45)	MIC (B. fragilis 0558)	MIC (C. ramosum)	MIC [7]	MIC (S. aureus Smith)	MIC [8]	MIC (Pst. micros UPI 5464-1)	MIC [10]	MIC (K. pneumoniae 1-220S)	MIC (B. fragilis 25285)	MIC [11]	MIC [12]	MIC [13]	MIC (C. perfringens KYA 13123)	MIC [14]	MIC (E. coli ML 4707)	MIC (F. varium KYA 8501)	other results
C[C@H]1CN(c2c(F)cc3c(=O)c(C(=O)O)cn(C4CC4)c3c2F)C[C@H]1N.Cl (relative stereo) [Example 20, 7-(cis-3-Amino-4-methyl-1-pyrrolidinyl)-1-cyclopropyl-6,8-difluoro-1,4-dihydro-4-oxo-3-quinolinecarboxylic acid hydrochloride]	0.05 µg/mL	0.0125 µg/mL	0.05 µg/mL	0.39 µg/mL	0.39 µg/mL	1.56 µg/mL	0.05 µg/mL	0.05 µg/mL	0.39 µg/mL	0.2 µg/mL	1.56 µg/mL	0.05 µg/mL	0.39 µg/mL	3.13 µg/mL	0.2 µg/mL	0.2 µg/mL	0.2 µg/mL	0.2 µg/mL	0.025 µg/mL	1.56 µg/mL	MIC [3, 16]: 0.025 µg/mL; MIC [4]: 0.0125 µg/mL; MIC [5, 16]: 0.05 µg/mL; MIC [6, 16]: 0.025 µg/mL; MIC (S. pyogenes IID 692): 0.39 µg/mL; MIC (P. maltophilia GIFU 2491; [16]): 0.39 µg/mL; MIC [9]: 0.2 µg/mL; MIC (S. pneumoniae IID 552): 0.2 µg/mL; MIC [15]: 0.39 µg/mL; MIC (P. mirabilis IID 994): 0.05 µg/mL; MIC (S. epidermidis IID 866): 0.05 µg/mL
C[C@H]1CN(c2c(F)cc3c(=O)c(C(=O)O)cn(C4CC4)c3c2Br)C[C@H]1N (relative stereo) [Example 21, 7-(cis-3-Amino-4-methyl-1-pyrrolidinyl)-8-bromo-1-cyclopropyl-6-fluoro-1,4-dihydro-4-oxo-3-quinolinecarboxylic acid]	0.025 µg/mL (≈ 0.0589 µM)	0.0063 µg/mL (≈ 0.0148 µM)	0.025 µg/mL (≈ 0.0589 µM)	0.1 µg/mL (≈ 0.236 µM)	0.05 µg/mL (≈ 0.118 µM)	0.78 µg/mL (≈ 1.84 µM)	0.025 µg/mL (≈ 0.0589 µM)	0.025 µg/mL (≈ 0.0589 µM)	0.1 µg/mL (≈ 0.236 µM)	0.1 µg/mL (≈ 0.236 µM)	0.39 µg/mL	0.05 µg/mL (≈ 0.118 µM)	0.05 µg/mL (≈ 0.118 µM)	1.56 µg/mL (≈ 3.68 µM)	0.39 µg/mL (≈ 0.919 µM)	0.05 µg/mL (≈ 0.118 µM)	0.1 µg/mL (≈ 0.236 µM)	0.1 µg/mL (≈ 0.236 µM)	0.0125 µg/mL (≈ 0.0295 µM)	0.78 µg/mL (≈ 1.84 µM)	MIC [3, 16]: 0.0125 µg/mL (≈ 0.0295 µM); MIC [4, 16]: 0.0063 µg/mL (≈ 0.0148 µM); MIC [5]: 0.025 µg/mL (≈ 0.0589 µM); MIC [6, 16]: 0.0125 µg/mL (≈ 0.0295 µM); MIC (S. pyogenes IID 692): 0.2 µg/mL (≈ 0.471 µM); MIC (P. maltophilia GIFU 2491; [16]): 0.05 µg/mL (≈ 0.118 µM); MIC [9]: 0.1 µg/mL (≈ 0.236 µM); MIC (S. pneumoniae IID 552): 0.2 µg/mL (≈ 0.471 µM); MIC [15]: 0.2 µg/mL (≈ 0.471 µM); MIC (P. mirabilis IID 994): 0.025 µg/mL (≈ 0.0589 µM); MIC (S. epidermidis IID 866): 0.05 µg/mL (≈ 0.118 µM)
C[C@@H]1CN(c2c(F)cc3c(=O)c(C(=O)O)cn(C4CC4)c3c2F)C[C@H]1N (relative stereo) [Example 18, 7-(trans-3-Amino-4-methyl-1-pyrrolidinyl)-1-cyclopropyl-6,8-difluoro-1,4-dihydro-4-oxo-3-quinolinecarboxylic acid]	0.05 µg/mL (≈ 0.138 µM)	0.0125 µg/mL (≈ 0.0344 µM)	0.05 µg/mL (≈ 0.138 µM)	0.2 µg/mL (≈ 0.55 µM)	0.2 µg/mL (≈ 0.55 µM)	0.78 µg/mL (≈ 2.15 µM)	0.025 µg/mL (≈ 0.0688 µM)	0.05 µg/mL (≈ 0.138 µM)	0.2 µg/mL (≈ 0.55 µM)	0.1 µg/mL (≈ 0.275 µM)	1.56 µg/mL	0.025 µg/mL (≈ 0.0688 µM)	0.2 µg/mL (≈ 0.55 µM)	1.56 µg/mL (≈ 4.29 µM)	0.1 µg/mL (≈ 0.275 µM)	0.05 µg/mL (≈ 0.138 µM)	0.1 µg/mL (≈ 0.275 µM)	0.1 µg/mL (≈ 0.275 µM)	0.0063 µg/mL (≈ 0.0173 µM)	1.56 µg/mL (≈ 4.29 µM)	MIC [3]: 0.0125 µg/mL (≈ 0.0344 µM); MIC [4, 16]: 0.0063 µg/mL (≈ 0.0173 µM); MIC [5, 16]: 0.05 µg/mL (≈ 0.138 µM); MIC [6]: 0.0125 µg/mL (≈ 0.0344 µM); MIC (S. pyogenes IID 692): 0.1 µg/mL (≈ 0.275 µM); MIC (P. maltophilia GIFU 2491): 0.05 µg/mL (≈ 0.138 µM); MIC [9]: 0.05 µg/mL (≈ 0.138 µM); MIC (S. pneumoniae IID 552): 0.05 µg/mL (≈ 0.138 µM); MIC [15]: 0.1 µg/mL (≈ 0.275 µM); MIC (P. mirabilis IID 994): 0.025 µg/mL (≈ 0.0688 µM); MIC (S. epidermidis IID 866): 0.05 µg/mL (≈ 0.138 µM)
C[C@@H]1CN(c2c(F)cc3c(=O)c(C(=O)O)cn(C4CC4)c3c2Cl)C[C@H]1N (relative stereo) [Example 17, 7-(trans-3-Amino-4-methyl-1-pyrrolidinyl)-8-chloro-1-cyclopropyl-6-fluoro-1,4-dihydro-4-oxo-3-quinolinecarboxylic acid]	0.05 µg/mL (≈ 0.132 µM)	0.0063 µg/mL (≈ 0.0166 µM)	0.025 µg/mL (≈ 0.0658 µM)	0.05 µg/mL (≈ 0.132 µM)	0.05 µg/mL (≈ 0.132 µM)	0.39 µg/mL (≈ 1.03 µM)	0.025 µg/mL (≈ 0.0658 µM)	0.025 µg/mL (≈ 0.0658 µM)	0.05 µg/mL (≈ 0.132 µM)	0.05 µg/mL (≈ 0.132 µM)	0.39 µg/mL	0.0125 µg/mL (≈ 0.0329 µM)	0.05 µg/mL (≈ 0.132 µM)	0.78 µg/mL (≈ 2.05 µM)	0.1 µg/mL (≈ 0.263 µM)	0.05 µg/mL (≈ 0.132 µM)	0.05 µg/mL (≈ 0.132 µM)	0.05 µg/mL (≈ 0.132 µM)	0.0063 µg/mL (≈ 0.0166 µM)	0.78 µg/mL (≈ 2.05 µM)	MIC [3, 16]: 0.0125 µg/mL (≈ 0.0329 µM); MIC [4, 16]: 0.0063 µg/mL (≈ 0.0166 µM); MIC [5, 16]: 0.025 µg/mL (≈ 0.0658 µM); MIC [6, 16]: 0.0125 µg/mL (≈ 0.0329 µM); MIC (P. maltophilia GIFU 2491; [16]): 0.05 µg/mL (≈ 0.132 µM); MIC [15]: 0.05 µg/mL (≈ 0.132 µM); MIC (P. mirabilis IID 994): 0.025 µg/mL (≈ 0.0658 µM); MIC (S. epidermidis IID 866): 0.05 µg/mL (≈ 0.132 µM)
